Settings: 101.33 kPa, Liquid

CCCCn1cc[n+](C)c1.COS(=O)(=O)[O-] [1-butyl-3-methylimidazolium methyl sulfate]
Settings | mass density [kg/m3]
290.95 K | 1214.9
292.95 K | 1213.5
294.95 K | 1212.1
297 K | 1210.7
299 K | 1209.4
301 K | 1208
303 K | 1206.7
305 K | 1205.3
307.05 K | 1204

— the NIST ThermoML archive (doi:10.1021/je060190e)
